Measurements reported in patent US20190359989A1, “FUSION PROTEIN AND APPLICATIONS THEREOF” (CARSGEN THERAPEUTICS CO., LTD., priority 2016, published 2019).
Where a SMILES comes first, the peptide text is derived from it. [ ]: non-standard residue; d: D form. Dolaproine = CO[C@@H]([C@@H]1CCCN1)[C@@H](C)C(=O)O; Dil = CC[C@H](C)[C@H](NC)[C@@H](CC(=O)O)OC; NMeV = CN[C@H](C(=O)O)C(C)C

Experiments:
FR806-positive T cells = experiment: CCK8 assay for killing FR806-expressing T cells; format: cell-based, human; conditions: CCK8, 72 h, 10-1000 nM
Protocol: Experimental group: T cells expressing eGFP-FR806 after sorted in Example 3 were plated in a 96-well plate at 3×10^4 cells per well in 100 ul of medium, 5 replicate wells per drug concentration, and then a blank group of medium was set. Control group: T cells that were not infected with the virus were taken and plated in a 96-well plate according to the operation of the experimental group. […] After 72 h, 10 ul of CCK8 reagent (Dojindo) was added to each well and incubated at 37° C. for 3 h, and the absorbance was measured at 450 nm by a microplate reader to calculate the cell viability.
According to the above procedure, the sorted T cells infected with eGFP-FR806 were taken and plated in a 96-well plate at 3×10^4 cells per well in 100 ul of culture medium, 5 replicate wells per drug concentration, and then a blank group of medium was set. The control group was uninfected T cells, which were plated in a 96-well plate by the same method. Six concentrations of free MMAFs of 1000 nM, 500 nM, 100 nM, 50 nM, 10 nM and 0 nM were added to T cells at specific concentrations to prepare six gradients (i.e., the aforementioned six concentrations). After 72 h, 10 ul of CCK8 reagent (Dojindo) was added to each well for 3 h at 37° C., and the absorbance was measured at 450 nm by a microplate reader to calculate the cell viability. […]

FR806-positive HEK293T = experiment: Cell killing experiment on EGFR+ HEK293T cells expressing FR806; format: cell-based
Excerpt: Moreover, the applicant selected EGFR+ HEK293T cells expressing FR806, and subjected them to cell killing experiments.

FR806-negative HEK293T = experiment: Cell killing experiment on FR806-negative EGFR+ HEK293T cells; format: cell-based
[1] = target: T1, EGFR on Keratinocyte cells and HEK-293T cells (human, UniProt P00533 25-1210); experiment: FACS on Keratinocyte cells and HEK-293T cells expressing EGFR
T1 construct: whole, on cells; also called epidermal growth factor receptor

## CC[C@H](C)[C@@H]([C@@H](CC(=O)N1CCC[C@H]1[C@H](OC)[C@@H](C)C(=O)N[C@@H](Cc1ccccc1)C(=O)O)OC)N(C)C(=O)[C@@H](NC(=O)[C@@H](NC)C(C)C)C(C)C [Free MMAF, MMAF] (H-[NMeV]V[Dil][Dolaproine]F-OH)
FR806-positive T cells
  killing levels to T cells expressing and not expressing FR806: comparable
FR806-positive HEK293T
  killing of FR806-positive HEK293T: killed
FR806-negative HEK293T
  killing of FR806-negative HEK293T: killed

B1: CH12 antibody (antibody, human IgG1, kappa, V domains shown)
VH: DVQLQESGPGLVKPSQSLSLTCTVTAYSVTSDYAWNWIRQFPGNKLEWMGYISYSGTTRYNPSLKSRISITRDTSKNQFFLQLNSMTAEDTATYYCSRQGRGFPYWGQGTLVTVSA
VL: DILMTQSPSSMSVSLGDTVSITCHASQDINSNIGWLQQKPGKSFKGLIYHGTNLEDGVPSRFSGSGSGADYSLTISSLESEDFADYYCVQYAQFPWTFGGGTKLEIKR
notes: CH12 antibody as disclosed in CN 200810038848.8; detected with goat anti-human IgG
[1]
  binding result: no binding
